# Activity calls are given as the source filed them. No cut-off for these calls is given here.
# Key:
# [1] = Inhibition of IFN-gamma induced PD-L1 protein expression in human BXPC-3 cells incubated for 48 hrs by high-throughput flow cytometric analysis; conditions: BXPC-3, 48 h
# [2] = Inhibition of IFN-gamma induced PD-L1 protein expression in human A549 cells incubated for 48 hrs by high-throughput flow cytometric analysis; conditions: A549, 48 h
# [3] = Inhibition of IFN-gamma induced PD-L1 protein expression in human SK-OV-3 cells incubated for 48 hrs by high-throughput flow cytometric analysis; conditions: SK-OV-3, 48 h
# BXPC-3 [4] = experiment: Reversal of IFN-gamma induced cell death in human BXPC-3 cells at 2.5 to 10 uM incubated for 48 hrs by microscopic analysis; format: functional, cell-based; conditions: dose 2.5-10 µM
# BXPC-3 [5] = experiment: Effect on cell death in human BXPC-3 cells at 2.5 to 10 uM incubated for 48 hrs by microscopic analysis; format: toxicity, cell-based; conditions: bxpc-3, 48 h, dose 2.5-10 µM
# BXPC-3 [6] = experiment: Effect on cell viability in human BXPC-3 cells at 2.5 to 10 uM incubated for 48 hrs by CellTiter-Glo assay; format: toxicity, cell-based; conditions: bxpc-3, 48 h, dose 2.5-10 µM
# [7] = target: Transcription factor p65 (Homo sapiens) (UniProt Q04206); experiment: Inhibition of p65 phosphorylation in human BXPC-3 cells at 2.5 to 10 uM preincubated with compound for 1 hrs followed by IFN-gamma stimulation for 1 hrs by Western blot analysis; format: cell-based; conditions: dose 2.5-10 µM, time 2.0 hrs
# Transcription factor p65 (Homo sapiens), sequence (Q04206 whole entry, the tested form may be a part): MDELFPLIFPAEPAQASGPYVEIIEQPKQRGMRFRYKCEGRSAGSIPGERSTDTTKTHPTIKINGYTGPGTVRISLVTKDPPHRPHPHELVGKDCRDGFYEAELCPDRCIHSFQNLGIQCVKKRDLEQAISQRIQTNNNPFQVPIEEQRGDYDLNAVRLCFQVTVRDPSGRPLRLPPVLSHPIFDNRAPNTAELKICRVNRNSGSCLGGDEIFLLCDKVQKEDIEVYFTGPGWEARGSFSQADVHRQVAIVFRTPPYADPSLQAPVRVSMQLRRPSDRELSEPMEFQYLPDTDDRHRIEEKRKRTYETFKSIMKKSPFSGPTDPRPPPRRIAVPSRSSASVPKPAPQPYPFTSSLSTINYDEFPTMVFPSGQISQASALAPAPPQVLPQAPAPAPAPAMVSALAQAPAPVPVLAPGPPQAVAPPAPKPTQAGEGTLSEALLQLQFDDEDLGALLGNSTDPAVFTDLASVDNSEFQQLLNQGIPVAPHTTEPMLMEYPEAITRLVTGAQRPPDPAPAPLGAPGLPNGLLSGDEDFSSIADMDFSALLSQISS
# [8] = target: Transcription factor p65 (Homo sapiens) (UniProt Q04206); experiment: Inhibition of p65 phosphorylation in human A549 cells at 2.5 to 10 uM preincubated with compound for 1 hrs followed by IFN-gamma stimulation for 1 hrs by Western blot analysis; format: cell-based; conditions: dose 2.5-10 µM, time 2.0 hrs
# [9] = target: Transcription factor p65 (Homo sapiens) (UniProt Q04206); experiment: Inhibition of p65 phosphorylation in human SK-OV-3 cells at 2.5 to 10 uM preincubated with compound for 1 hrs followed by IFN-gamma stimulation for 1 hrs by Western blot analysis; format: cell-based; conditions: dose 2.5-10 µM, time 2.0 hrs
# [10] = target: T1, Tyrosine-protein kinase JAK2 (Homo sapiens, UniProt O60674); experiment: Inhibition of N-terminal His-tagged human JAK2 (826 to 1132 residues) expressed in Sf21 cells incubated for 30 mins in presence of ATP by LANCE Ultra assay
# T1 sequence (O60674 whole entry, the tested form may be a part): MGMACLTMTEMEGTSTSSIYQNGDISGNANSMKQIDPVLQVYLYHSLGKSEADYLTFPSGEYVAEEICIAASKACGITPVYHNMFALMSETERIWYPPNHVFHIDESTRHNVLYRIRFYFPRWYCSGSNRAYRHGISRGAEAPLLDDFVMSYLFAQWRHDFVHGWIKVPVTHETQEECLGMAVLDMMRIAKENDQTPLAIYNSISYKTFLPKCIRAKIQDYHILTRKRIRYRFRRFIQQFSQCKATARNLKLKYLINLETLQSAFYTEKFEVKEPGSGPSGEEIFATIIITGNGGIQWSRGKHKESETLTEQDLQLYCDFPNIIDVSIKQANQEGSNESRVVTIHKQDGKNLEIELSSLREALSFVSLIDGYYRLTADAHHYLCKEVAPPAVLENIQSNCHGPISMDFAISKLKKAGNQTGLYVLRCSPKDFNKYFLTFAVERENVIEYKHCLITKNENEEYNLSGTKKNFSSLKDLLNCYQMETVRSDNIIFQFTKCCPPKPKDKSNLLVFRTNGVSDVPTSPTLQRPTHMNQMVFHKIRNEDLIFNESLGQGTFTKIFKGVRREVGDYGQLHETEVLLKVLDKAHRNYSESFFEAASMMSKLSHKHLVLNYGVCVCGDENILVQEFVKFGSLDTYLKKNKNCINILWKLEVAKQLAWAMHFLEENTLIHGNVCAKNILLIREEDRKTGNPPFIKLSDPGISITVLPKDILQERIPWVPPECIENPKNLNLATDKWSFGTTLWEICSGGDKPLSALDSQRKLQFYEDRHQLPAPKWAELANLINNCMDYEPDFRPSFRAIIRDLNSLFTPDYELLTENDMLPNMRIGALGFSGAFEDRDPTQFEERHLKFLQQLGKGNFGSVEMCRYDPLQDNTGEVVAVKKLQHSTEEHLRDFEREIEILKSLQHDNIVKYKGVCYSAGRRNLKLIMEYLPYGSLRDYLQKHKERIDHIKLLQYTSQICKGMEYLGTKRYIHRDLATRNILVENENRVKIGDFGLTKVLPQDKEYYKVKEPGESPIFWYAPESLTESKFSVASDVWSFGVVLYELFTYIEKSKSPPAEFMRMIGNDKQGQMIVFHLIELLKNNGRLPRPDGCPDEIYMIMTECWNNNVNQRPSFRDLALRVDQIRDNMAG
# [11] = target: T2, Tyrosine-protein kinase JAK3 (Homo sapiens, UniProt P52333); experiment: Inhibition of N-terminal His-tagged human JAK3 (795 to 1124 residues) expressed in Sf21 cells incubated for 30 mins in presence of ATP by LANCE Ultra assay
# T2 sequence (P52333 whole entry): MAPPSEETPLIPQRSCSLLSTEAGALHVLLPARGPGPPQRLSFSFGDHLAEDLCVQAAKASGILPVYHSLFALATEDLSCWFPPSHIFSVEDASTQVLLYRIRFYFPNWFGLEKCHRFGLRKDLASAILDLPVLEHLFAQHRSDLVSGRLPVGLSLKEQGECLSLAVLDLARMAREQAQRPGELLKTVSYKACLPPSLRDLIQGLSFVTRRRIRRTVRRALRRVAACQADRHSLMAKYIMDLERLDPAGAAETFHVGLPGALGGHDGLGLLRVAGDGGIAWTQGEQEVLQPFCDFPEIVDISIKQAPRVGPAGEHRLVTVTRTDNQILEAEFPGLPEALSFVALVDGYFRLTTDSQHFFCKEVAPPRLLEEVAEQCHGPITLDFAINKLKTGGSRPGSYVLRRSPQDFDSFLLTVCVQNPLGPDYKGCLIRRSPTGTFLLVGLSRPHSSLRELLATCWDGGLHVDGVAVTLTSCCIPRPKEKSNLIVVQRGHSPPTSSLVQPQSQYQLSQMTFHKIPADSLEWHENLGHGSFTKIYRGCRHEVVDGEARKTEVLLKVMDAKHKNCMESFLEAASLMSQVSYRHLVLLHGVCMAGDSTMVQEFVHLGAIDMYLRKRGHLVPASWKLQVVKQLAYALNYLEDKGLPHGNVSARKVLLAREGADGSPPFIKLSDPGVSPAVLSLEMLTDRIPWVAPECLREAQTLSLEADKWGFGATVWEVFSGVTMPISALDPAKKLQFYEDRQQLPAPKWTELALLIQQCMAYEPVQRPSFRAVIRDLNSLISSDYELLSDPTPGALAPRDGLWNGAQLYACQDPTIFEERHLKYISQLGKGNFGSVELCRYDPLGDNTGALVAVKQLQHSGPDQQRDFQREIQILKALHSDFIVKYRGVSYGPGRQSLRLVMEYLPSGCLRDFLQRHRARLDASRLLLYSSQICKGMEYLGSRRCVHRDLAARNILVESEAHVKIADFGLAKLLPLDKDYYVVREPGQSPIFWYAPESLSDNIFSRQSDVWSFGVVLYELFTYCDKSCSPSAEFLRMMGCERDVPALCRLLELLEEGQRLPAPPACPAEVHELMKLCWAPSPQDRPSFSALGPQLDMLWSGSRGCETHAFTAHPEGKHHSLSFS
# [12] = target: Non-receptor tyrosine-protein kinase TYK2 (Homo sapiens, UniProt P29597); experiment: Inhibition of N-terminal GST-tagged human TYK2 (871to 1187 residues) expressed in Sf21 cells incubated for 30 mins in presence of ATP by LANCE Ultra assay
# Non-receptor tyrosine-protein kinase TYK2, sequence (P29597 whole entry, the tested form may be a part): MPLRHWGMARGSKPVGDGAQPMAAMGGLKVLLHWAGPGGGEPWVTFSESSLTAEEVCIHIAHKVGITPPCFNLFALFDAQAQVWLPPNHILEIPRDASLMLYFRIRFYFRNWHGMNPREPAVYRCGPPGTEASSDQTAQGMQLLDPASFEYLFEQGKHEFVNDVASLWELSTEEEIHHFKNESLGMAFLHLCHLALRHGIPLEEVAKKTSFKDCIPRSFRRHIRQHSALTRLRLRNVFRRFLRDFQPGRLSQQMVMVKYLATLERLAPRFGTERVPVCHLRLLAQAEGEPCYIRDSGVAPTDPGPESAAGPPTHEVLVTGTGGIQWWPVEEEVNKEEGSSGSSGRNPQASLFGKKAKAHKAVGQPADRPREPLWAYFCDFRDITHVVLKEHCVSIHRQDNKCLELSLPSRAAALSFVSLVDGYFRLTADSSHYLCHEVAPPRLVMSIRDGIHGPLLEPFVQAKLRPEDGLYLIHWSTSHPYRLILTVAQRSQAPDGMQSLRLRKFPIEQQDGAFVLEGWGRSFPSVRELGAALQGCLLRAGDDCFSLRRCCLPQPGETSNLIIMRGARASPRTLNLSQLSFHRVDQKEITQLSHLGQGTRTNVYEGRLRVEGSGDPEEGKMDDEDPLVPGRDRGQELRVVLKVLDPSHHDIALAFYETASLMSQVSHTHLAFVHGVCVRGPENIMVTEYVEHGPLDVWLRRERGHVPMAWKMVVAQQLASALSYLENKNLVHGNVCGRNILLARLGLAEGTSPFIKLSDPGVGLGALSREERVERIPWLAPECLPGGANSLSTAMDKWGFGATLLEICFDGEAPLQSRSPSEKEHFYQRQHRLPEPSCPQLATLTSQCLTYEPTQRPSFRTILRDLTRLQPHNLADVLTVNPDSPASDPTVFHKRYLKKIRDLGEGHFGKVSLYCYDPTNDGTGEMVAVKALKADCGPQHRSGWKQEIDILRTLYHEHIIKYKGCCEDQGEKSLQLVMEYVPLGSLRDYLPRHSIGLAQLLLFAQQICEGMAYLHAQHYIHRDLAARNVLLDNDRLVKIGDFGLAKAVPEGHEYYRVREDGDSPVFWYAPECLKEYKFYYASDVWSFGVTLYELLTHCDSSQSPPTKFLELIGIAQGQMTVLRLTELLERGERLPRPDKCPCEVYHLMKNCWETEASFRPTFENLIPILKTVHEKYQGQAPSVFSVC
# B16-OVA melanoma cell [13] = experiment: Sensitization of mouse B16-OVA melanoma cells to OT-1 T cells assessed as increase in antigen specific T-cell killing at 2.5 to 10 uM preincubated with compound in presence of mouse IFN-gamma for 24 hrs followed by OT-1 T cell addition for 24 hrs by crystal violet staining based analysis; format: functional; conditions: dose 2.5-10 µM, time 48.0 hrs
# B16-OVA melanoma cell [14] = experiment: Sensitization of mouse B16-OVA melanoma cells to OT-1 T cells assessed as reduction in cell viability preincubated with compound in presence of mouse IFN-gamma for 24 hrs followed by OT-1 T cell addition for 24 hrs by CellTiter-Glo assay; format: functional, cell-based; conditions: dose 2.5-10 µM
# [15] = target: T1, Tyrosine-protein kinase JAK2; conditions: BXPC-3, Lysate, dose 10.0 µM, time 1.0 hrs
compound,measurement,setting,value
C/C(=C\C[C@@H](C)[C@H]1CC[C@H]2[C@@H]3C[C@H](OS(=O)(=O)[O-])[C@H]4C[C@H](OS(=O)(=O)[O-])[C@@H](OS(=O)(=O)[O-])C[C@]4(C)[C@H]3CC[C@]12C)C(C)(C)C(C)C.[Na+].[Na+].[Na+],IC50,[1],4.1 µM
same,IC50,[2],2.8 µM
same,IC50,[3],6.5 µM
same,Activity,BXPC-3 [4],Active
same,Activity,BXPC-3 [5],Non-Toxic
same,Activity,BXPC-3 [6],Non-Toxic
same,inhibition,[7],inactive
same,inhibition,[8],inactive
same,inhibition,[9],inactive
same,IC50,[10],1.2 µM
same,IC50,[11],0.52 µM
same,IC50,[12],0.53 µM
same,Activity,B16-OVA melanoma cell [13],Active
same,Activity,B16-OVA melanoma cell [14],Dose-Dependent Effect
same,ΔTm,[15],11 °C

# Reference: ChEMBL document CHEMBL5385928, “Sokotrasterol Sulfate Suppresses IFN-γ-Induced PD-L1 Expression by Inhibiting JAK Activity” (J Nat Prod, 2024)
